Laboratory results as given in patent US11319299B2, “Substituted carboxamides as inhibitors of WDR5 protein-protein binding” (PROPELLON THERAPEUTICS INC., priority 2016, dated 2022).

Biological target: WDR5 (Homo sapiens (Human), UniProt P61964)
Assay: Surface Plasmon Resonance (SPR) assay, KD and residence time
Type: binding
Details: surface plasmon resonance (SPR) assay; read-out: WDR5 binding affinity (KD)

Kd [nM]	Compound
1.01	C[C@@H]1CN(c2cc(F)c(C3=CCN(C(=O)N(C)C)CC3)cc2NC(=O)c2c[nH]c(=O)cc2C(F)(F)F)C[C@H](C)N1C [Example 285, N-[5-[1-(dimethylcarbamoyl)-3,6-dihydro-2H-pyridin-4-yl]-4-fluoro-2-[(3R,5S)-3,4,5-trimethylpiperazin-1-yl]phenyl]-6-oxo-4-(trifluoromethyl)-1H-pyridine-3-carboxamide]
1.64	C[C@@H]1CN(c2cc(F)c(-c3ccc(N4CCCC4)nc3)cc2NC(=O)c2c[nH]c(=O)cc2C(F)(F)F)C[C@H](C)N1C [Example 261, N-[4-fluoro-5-(6-pyrrolidin-1-ylpyridin-3-yl)-2-[(3R,5S)-3,4,5-trimethylpiperazin-1-yl]phenyl]-6-oxo-4-(trifluoromethyl)-1H-pyridine-3-carboxamide]
3.3	CCOC(=O)N1CC=C(c2cc(NC(=O)c3c[nH]c(=O)cc3C(F)(F)F)c(N3C[C@@H](C)N(C)[C@@H](C)C3)cc2F)CC1 [Example 253, ethyl 4-[2-fluoro-5-[[6-oxo-4-(trifluoromethyl)-1H-pyridine-3-carbonyl]amino]-4-[(3R,5S)-3,4,5-trimethylpiperazin-1-yl]phenyl]-3,6-dihydro-2H-pyridine-1-carboxylate]
9.7	CC1CN(c2cc(F)c(-c3cnc(N4CCOCC4)nc3)cc2NC(=O)c2cc(Cl)cc(Cl)c2)CCN1C (stereo in doubt) [Example 200, 3,5-dichloro-N-[4-fluoro-5-(2-morpholin-4-ylpyrimidin-5-yl)-2-[(3R)-3,4-dimethylpiperazin-1-yl]phenyl]benzamide]
1260	CC1CN(c2cc(F)c(-c3cnc(N4CCOCC4)nc3)cc2NC(=O)c2ccn(C)n2)CCN1C (stereo in doubt) [Example 192, N-[4-fluoro-5-(2-morpholin-4-ylpyrimidin-5-yl)-2-[(3R)-3,4-dimethylpiperazin-1-yl]phenyl]-1-methylpyrazole-3-carboxamide]
16.2	C[C@@H]1CN(c2cc(F)c(-c3cnc(N4CCOCC4)nc3)cc2NC(=O)c2ccccc2C(F)(F)F)C[C@H](C)N1C [Example 141, N-[4-fluoro-5-(2-morpholin-4-ylpyrimidin-5-yl)-2-[(3R,5S)-3,4,5-trimethylpiperazin-1-yl]phenyl]-2-(trifluoromethyl)benzamide]
5400	COc1ccc(C(=O)Nc2cc(-c3cnc(N4CCOCC4)nc3)c(F)cc2N2C[C@@H](C)N(C)[C@@H](C)C2)cc1 [Example 106, N-[4-fluoro-5-(2-morpholin-4-ylpyrimidin-5-yl)-2-[(3R,5S)-3,4,5-trimethylpiperazin-1-yl]phenyl]-4-methoxybenzamide]
2.79	CC(=O)N1CC=C(c2cc(NC(=O)c3c[nH]c(=O)cc3C(F)(F)F)c(N3C[C@@H](C)N(C)[C@@H](C)C3)cc2F)CC1 [Example 252, N-[5-(1-acetyl-3,6-dihydro-2H-pyridin-4-yl)-4-fluoro-2-[(3R,5S)-3,4,5-trimethylpiperazin-1-yl]phenyl]-6-oxo-4-(trifluoromethyl)-H-pyridine-3-carboxamide]
1.18	C[C@@H]1CN(c2cc(F)c(C3=CCN(C(=O)N4CCCC4)CC3)cc2NC(=O)c2c[nH]c(=O)cc2C(F)(F)F)C[C@H](C)N1C [Example 286, N-[4-fluoro-5-[1-(pyrrolidine-1-carbonyl)-3,6-dihydro-2H-pyridin-4-yl]-2-[(3R,5S)-3,4,5-trimethylpiperazin-1-yl]phenyl]-6-oxo-4-(trifluoromethyl)-1H-pyridine-3-carboxamide]
0.943	C[C@@H]1CN(c2cc(F)c(C3=CCN(C4COC4)CC3)cc2NC(=O)c2c[nH]c(=O)cc2C(F)(F)F)C[C@H](C)N1C [Example 235, N-[4-fluoro-5-[1-(oxetan-3-yl)-3,6-dihydro-2H-pyridin-4-yl]-2-[(3R,5S)-3,4,5-trimethylpiperazin-1-yl]phenyl]-6-oxo-4-(trifluoromethyl)-1H-pyridine-3-carboxamide]
3.05	C[C@@H]1CN(c2cc(F)c(C3=CCN(C(=O)OC(C)(C)C)C3)cc2NC(=O)c2cn(C)c(=O)cc2C(F)(F)F)C[C@H](C)N1C [Example 326, tert-butyl 3-[2-fluoro-5-[[-methyl-6-oxo-4-(trifluoromethyl)pyridine-3-carbonyl]amino]-4-[(3R,5S)-3,4,5-trimethylpiperazin-1-yl]phenyl]-2,5-dihydropyrrole-1-carboxylate]
6.91	C[C@@H]1CN(c2cc(F)c(-c3cnc(N4CCOCC4)nc3)cc2NC(=O)c2cccc(Cl)c2Cl)C[C@H](C)N1C [Example 213, 2,3-dichloro-N-[4-fluoro-5-(2-morpholin-4-ylpyrimidin-5-yl)-2-[(3R,5S)-3,4,5-trimethylpiperazin-1-yl]phenyl]benzamide]
1.53	C[C@@H]1CN(c2cc(F)c(-c3cncc(C(=O)NC(C)(C)C)c3)cc2NC(=O)c2c[nH]c(=O)cc2C(F)(F)F)C[C@H](C)N1C [Example 174, N-[5-[5-(tert-butylcarbamoyl)pyridin-3-yl]-4-fluoro-2-[(3R,5S)-3,4,5-trimethylpiperazin-1-yl]phenyl]-6-oxo-4-(trifluoromethyl)-1H-pyridine-3-carboxamide]
14.9	CNC1CCN(c2cc(F)c(-c3cnc(N4CCOCC4)nc3)cc2NC(=O)c2c[nH]c(=O)cc2C(F)(F)F)C1 (stereo not shown) [Example 277, N-[4-fluoro-2-[3-(methylamino)pyrrolidin-1-yl]-5-(2-morpholin-4-ylpyrimidin-5-yl)phenyl]-6-oxo-4-(trifluoromethyl)-1H-pyridine-3-carboxamide]

Same assay, conditions: surface plasmon resonance (SPR); read-out: WDR5 binding affinity (KD)

Kd [nM]	Compound
2.96	C[C@@H]1CN(c2cc(F)c(C3=CCN(c4ncc(C=O)cn4)C3)cc2NC(=O)c2c[nH]c(=O)cc2C(F)(F)F)C[C@H](C)N1C [Example 444, N-[4-fluoro-5-[1-(5-formylpyrimidin-2-yl)-2,5-dihydropyrrol-3-yl]-2-[(3R,5S)-3,4,5-trimethylpiperazin-1-yl]phenyl]-6-oxo-4-(trifluoromethyl)-1H-pyridine-3-carboxamide]
2.27	C[C@H]1CN(c2cc(F)c(C3=CCN(C(=O)OC4CC(F)(F)C4)C3)cc2NC(=O)c2c[nH]c(=O)cc2C(F)F)CCN1C [Example 638, 3,3-Difluorocyclobutyl (S)-3-(5-(4-(difluoromethyl)-6-oxo-1,6-dihydropyridine-3-carboxamido)-4-(3,4-dimethylpiperazin-1-yl)-2-fluorophenyl)-2,5-dihydro-1H-pyrrole-1-carboxylate]
1.52	C[C@@H]1CN(c2cc(F)c(-c3cc(F)c(=O)n(C)c3)cc2NC(=O)c2c[nH]c(=O)cc2C(F)(F)F)C[C@H](C)N1C [Example 564, N-[4-fluoro-5-(5-fluoro-1-methyl-6-oxopyridin-3-yl)-2-[(3R,5S)-3,4,5-trimethylpiperazin-1-yl]phenyl]-6-oxo-4-(trifluoromethyl)-1H-pyridine-3-carboxamide]
3.7	C[C@@H]1CN(c2cc(F)c(C3=CCCN(C(=O)OC4(C)CCC4)CC3)cc2NC(=O)c2c[nH]c(=O)cc2C(F)(F)F)C[C@H](C)N1C [Example 699, (1-methylcyclobutyl) 4-[2-fluoro-5-[[6-oxo-4-(trifluoromethyl)-1H-pyridine-3-carbonyl]amino]-4-[(3R,5S)-3,4,5-trimethylpiperazin-1-yl]phenyl]-2,3,6,7-tetrahydroazepine-1-carboxylate]
2.29	C[C@@H]1CN(c2cc(F)c(-c3cnc(N4CCOC(C)(C)C4)nc3)cc2NC(=O)c2cn(C)c(=O)cc2C(F)(F)F)C[C@H](C)N1C [Example 662, N-[5-[2-(2,2-dimethylmorpholin-4-yl)pyrimidin-5-yl]-4-fluoro-2-[(3R,5S)-3,4,5-trimethylpiperazin-1-yl]phenyl]-1-methyl-6-oxo-4-(trifluoromethyl)pyridine-3-carboxamide]
2.44	C[C@@H]1CN(c2cc(F)c(C3=CCN(c4ccc(C5CC5)nn4)CC3)cc2NC(=O)c2c[nH]c(=O)cc2C(F)(F)F)C[C@H](C)N1C [Example 503, N-[5-[1-(6-cyclopropylpyridazin-3-yl)-3,6-dihydro-2H-pyridin-4-yl]-4-fluoro-2-[(3R,5S)-3,4,5-trimethylpiperazin-1-yl]phenyl]-6-oxo-4-(trifluoromethyl)-1H-pyridine-3-carboxamide]
2.44	CCc1ccc(N2CC=C(c3cc(NC(=O)c4c[nH]c(=O)cc4C(F)(F)F)c(N4C[C@@H](C)N(C)[C@@H](C)C4)cc3F)CC2)nn1 [Example 504, N-[5-[1-(6-ethylpyridazin-3-yl)-3,6-dihydro-2H-pyridin-4-yl]-4-fluoro-2-[(3R,5S)-3,4,5-trimethylpiperazin-1-yl]phenyl]-6-oxo-4-(trifluoromethyl)-1H-pyridine-3-carboxamide]
1.18	CC1CN(c2cc(F)c(-c3cccc(N4CCOCC4)n3)cc2NC(=O)c2c[nH]c(=O)cc2C(F)(F)F)CCN1C (stereo in doubt) [Example 719, N-[4-fluoro-5-(6-morpholin-4-ylpyridin-2-yl)-2-[(3R)-3,4-dimethylpiperazin-1-yl]phenyl]-6-oxo-4-(trifluoromethyl)-1H-pyridine-3-carboxamide]
1.42	C[C@@H]1CN(c2cc(F)c(-c3cnc(N4CCC(C)(O)CC4)nc3)cc2NC(=O)c2ccc(F)cc2C(F)(F)F)C[C@H](C)N1C [Example 636, 4-Fluoro-N-[4-fluoro-5-[2-(4-hydroxy-4-methylpiperidin-1-yl)pyrimidin-5-yl]-2-[(3R,5S)-3,4,5-trimethylpiperazin-1-yl]phenyl]-2-(trifluoromethyl)benzamide]
5.03	C[C@@H]1CN(c2cc(F)c(-c3csc(C(=O)N(C)CC4CC4)n3)cc2NC(=O)c2cn(C)c(=O)cc2C(F)(F)F)C[C@H](C)N1C [Example 524, N-(cyclopropylmethyl)-4-[2-fluoro-5-[[-methyl-6-oxo-4-(trifluoromethyl)pyridine-3-carbonyl]amino]-4-[(3R,5S)-3,4,5-trimethylpiperazin-1-yl]phenyl]-N-methyl-1,3-thiazole-2-carboxamide]
1.06	C[C@@H]1CN(c2cc(F)c(-c3csc(C(=O)NCC4CC4)n3)cc2NC(=O)c2c[nH]c(=O)cc2C(F)(F)F)C[C@H](C)N1C [Example 531, N-(cyclopropylmethyl)-4-[2-fluoro-5-[[6-oxo-4-(trifluoromethyl)-1H-pyridine-3-carbonyl]amino]-4-[(3R,5S)-3,4,5-trimethylpiperazin-1-yl]phenyl]-1,3-thiazole-2-carboxamide]
